Reference: article PMC3025356, “Mechanism of the Ca^2+-Dependent Interaction between S100A4 and Tail Fragments of Nonmuscle Myosin Heavy Chain IIA” (Journal of Molecular Biology, 2011)
Where two headings read alike, the source gives them in different places. Values belong to the compound of their own block, whether it stands above or below them.

How the values were obtained:
[1] = molecular target: T1, S100A4 (Homo sapiens, UniProt P26447); conditions: cited from earlier work
T1 construct: We used full-length S100A4 for this analysis; made in house; host or cells: Escherichia coli BL21(DE3)
Text: The site between helix III and helix IV of S100A4, exposed in the presence of Ca^2+, could accommodate an α-helical target of about 16 residues. The longer M32 mini ...

[2] = molecular target: T1, S100A4; experiment: Fluorescence anisotropy titration, F-M16^N binding to S100A4
Description: Titration (circles) was carried out in 20 mM NaCl, 10 mM Hepes, 1 mM Mg^2+, and 100 μM Ca^2+ at pH 7.5 and 20 °C. […] (squares).
Fluorescence spectra and anisotropy measurements were recorded using an SLM 8000 spectrofluorimeter (SLM, Urbana, IL). Fluorescein anisotropy measurements were carried out in L-format using a 515-nm emission filter. The four combinations of vertical and horizontal polarisers (vv, vh, hh, and hv) were each recorded for 30 s, and then the initial setting (vv) was re-read to check for signal stability. Calculations of the total fluorescence (Ivv + 2Ivh) and anisotropy (Ivv − Ivh/(Ivv + 2Ivh)), corrected for the g factor (hh/hv), were performed using an Excel spreadsheet. […] Note that the small correction for the emission intensity weighting to the observed anisotropy was not applied to these competitive titrations as the error will tend to cancel.

[3] = molecular target: T1, S100A4; experiment: Stopped-flow fluorescein fluorescence, kinetics of myosin peptide binding to S100A4; conditions: for dissociation rate constants, F-M16N vs M32: modelled
Description: (§1) Stopped-flow measurements were carried out using an SX18-MV apparatus (Applied Photophysics Ltd., Leatherhead, UK) with a dead time of 1.5 ms.[40] Records were generally captured on a logarithmic time base. Absorption (turbidity) measurements were usually recorded using a 10-mm pathlength, while fluorescence was recorded with a 2-mm pathlength for excitation and emission. The stated concentrations of components refer to the reaction chamber after mixing, unless otherwise indicated. Tyrosine fluorescence was excited at 280 nm, and the emission was collected through a UG11 bandpass filter plus a 305-nm longpass filter.[18] Fluorescein fluorescence was excited at 480 nm, and the emission was detected through a 515-nm longpass filter. Quin-2 fluorescence was measured by excitation at 336 nm, and emission was collected with a 455-nm longpass filter. For simultaneous recording of light scatter, a second channel was monitored through a UG11 filter. Rate constants were obtained by fitting to single-exponential or double-exponential functions using Kaleidagraph (Synergy Software) or Applied Photophysics Pro-Data software. Modeling of kinetic schemes was performed using Berkeley Madonna software.
The value of K5 (scheme 2) was estimated from two independent experiments. From the competition
(§2) A second estimate was calculated from the apparent Ca2+ binding constant observed in the turbidity assay […]
Fig. S2. (a) Displacement of 0.1
monitored by fluorescein emission intensity. […] (b)
Ca2+ was mixed with 1 mM EGTA. […] Note in these
stopped-flow measurements of fluorescein intensity, no polarising optics were present at the magic angle

[4] = molecular target: T1, S100A4; experiment: Summary of rate and equilibrium constants defined according to Scheme 1; format: binding; conditions: for k− 3: Ca^2+ dissociation from peptide–S100A4–Ca^2+; for k2: peptide association to S100A4–Ca^2+; for k− 2: peptide dissociation from S100A4–Ca^2+
Text: The interaction of myosin tail fragments (M) with S100A4 depends on [Ca^2+], with little detectable binding in the absence of Ca^2+.[2,7,17] Scheme 1 presents a minimal pathway describing the thermodynamics and kinetics of this interaction, where arrow lengths indicate the approximate position of the equilibria involved.
[formula] Scheme 1 Ca2+ and myosin peptide (M) binding to S100A4.
The binding of Ca^2+ and a target peptide to S100A4, as shown in Scheme 1, is thermodynamically coupled so that K1K2 = K0K3. For simplicity, we assume a 1:1 stoichiometry and independent binding sites, which are unlikely to be true at least for the longer fragments. However, the trends in binding remain valid for more complex cases. Binding of target peptides to S100A4 in the absence of Ca^2+ is weak (K0 > 100 μM), while binding of target peptides to S100A4 in the presence of Ca^2+ (K2) is around a micromolar or less for longer fragments. Knowing that Ca^2+ binding to S100A4 has K1 = 2–5 μM (from the ITC data above and the literature[14,17,18]) requires that Ca^2+ binding to the M–S100A4 complex be very tight (K3 < 0.15 μM and even lower for M200). The latter cannot be easily determined directly as it requires protein concentrations greater than K0 (i.e., >>100 μM) so that the proteins remain bound together throughout the titration with Ca^2+. However, K3 is readily determined by calculation because values or limits for K0, K1, and K2 are available (Table 2). This aspect is addressed further below for M200, which has the complication of forming filaments at the ionic strength used.

[5] = molecular target: T1, S100A4; experiment: Quin-2 fluorescence, Ca^2+ dissociation from S100A4 in the presence of target peptides; format: binding
Description: Ca^2+ dissociation measurements for wild-type S100A4, using Quin-2 as described above, were repeated as a control for the effect of target peptides on this process. On mixing 10 μM S100A4 in the presence of Ca^2+ with 100 μM Quin-2, the observed profile was fitted to a single exponential with kobs = 17 s^− 1 (Fig. 5a; cf. k− 1 in Scheme 1).
Fig. 5 Dissociation of Ca^2+ from S100A4 in the absence and in the presence of target peptides monitored using Quin-2 fluorescence. (a) Mixed with 100 μM Quin-2 was 10 μM S100A4 + 50 μM Ca^2+ (stopped-flow reaction chamber concentrations). A superposed fit to a single exponential yields kobs = 17 s^− 1. […] (d) As in (a), but with 2.5 μM M200 premixed with 5 μM S100A4. A biphasic exponential fit yielded rate constants of 13 s^− 1 (A = 26%) and 0.30 s^− 1 (A = 74%). […] Experiments were carried out in either 20 mM NaCl, 20 mM Tris, 1 mM DTT, and 100 μM Ca^2+ at pH 7.5 and 20 °C (a and b; cf. Malashkevich et al.[17]), or 100 mM NaCl, 10 mM Hepes, and 100 μM Ca^2+ at pH 7.5 and 20 °C (c and d). […] Rate constants were unaffected by the inclusion of 1 mM Mg^2+.
as §1, with “Rate constants were obtained by fitting to single-exponential or double-exponential functions using Kaleidagraph (Synergy Software) or Applied Photophysics Pro-Data software. Modeling of kinetic schemes was performed using Berkeley Madonna software.” left out

[6] = molecular target: T1, S100A4; experiment: Competition of M32/M16^N with M200 for S100A4 (turbidity); format: biochemical; conditions: 250 μM peptide, 5 μM M200, 10 μM S100A4, Ca^2+
Description: Fig. 9 Dissociation of M200 filaments by S100A4. (a) Initially, M200 was added (i) from a concentrated stock in 0.5 M NaCl to give a final concentration of 5 μM M200 (with respect to the polypeptide chain) in 100 mM NaCl, 10 mM Hepes, and 0.1 mM Ca^2+ at pH 7.5 and 20 °C. A biphasic rise in turbidity was recorded for 200 s (continuous line). Then 10 μM S100A4 (with respect to monomer concentration) was added (ii), followed by 0.2 mM EGTA (iii) and 1 mM Ca^2+ (iv). […] (b) M200 was diluted (i) into 100 mM NaCl to form filaments as in (a), then 5 μM S100A4 was added (ii), causing a 54% drop in turbidity. A further 5 μM S100A4 (iii) caused turbidity to fall to almost zero. (c) Stopped-flow records monitoring the dissociation of 5 μM M200 filaments on jumping [NaCl] from 100 mM to 120 mM NaCl. Other components of the buffer were 20 mM Hepes, 1 mM Mg^2+, and 100 μM Ca^2+ at pH 7.5 and 20 °C. […] In the presence of 20 μM S100A4 (lower trace), the turbidity decreased by 87% with a rate constant of 0.2 s^− 1.
Further information on Scheme 2 was obtained from competition assays. […] An independent estimate of K5 based on the Ca^2+ dependence of the turbidity assay yielded a value of 0.003 μM (see Supplementary Data).
The decrease in fluorescence, […]
that F-M16N binding was slightly faster. […]
as §2

T1 sequence (P26447 whole entry): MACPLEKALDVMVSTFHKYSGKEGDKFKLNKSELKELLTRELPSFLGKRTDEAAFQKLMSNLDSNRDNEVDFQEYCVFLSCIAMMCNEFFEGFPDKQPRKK

Compound: R1893-R1923 myosin fragment: R1893-R1923 myosin fragment of Malashkevich et al.
- stoichiometry [1]: ~0.5 mol of peptide per mole of S100A4 (dimer)

Compound: CSCC[C@H](NC(=O)[C@H](C)NC(=O)[C@H](CC(=O)O)NC(=O)CCCCCNC(=S)Nc1ccc2c(c1)C(=O)OC21c2ccc(O)cc2Oc2cc(O)ccc21)C(=O)N[C@@H](CC(N)=O)C(=O)N[C@@H](CCCNC(=N)N)C(=O)N[C@@H](CCC(=O)O)C(=O)N[C@H](C(=O)N[C@@H](CO)C(=O)N[C@@H](CO)C(=O)N[C@@H](CC(C)C)C(=O)N[C@@H](CCCCN)C(=O)N[C@@H](CC(N)=O)C(=O)N[C@@H](CCCCN)C(=O)N[C@@H](CC(C)C)C(=O)N[C@@H](CCCNC(=N)N)C(=O)N[C@@H](CCCNC(=N)N)C(N)=O)C(C)C [F-M16^N]
- quench of total fluorescein fluorescence on binding [2]: ~35%
- displacement rate constant by excess M32 ([3]; 0.1 μM F-M16^N, 5 μM S100A4, 60 μM M32, Ca^2+): 7.7 s^− 1
- kobs on mixing with EGTA (Ca^2+ dissociation from complex, k− 3) ([3]; 0.1 μM F-M16^N, 10 μM S100A4, 50 μM Ca^2+, 1 mM EGTA): 9.4 s^− 1
- kobs of binding ([3]; 0.1 μM F-M16^N, 25 μM S100A4): 138 s^− 1
- calculated kobs via k− 2 and k− 1 route ([3]; 10 μM S100A4): 1.8 s^− 1
- maximum kobs ([3]; above 25 μM S100A4): 150 s^− 1
- association rate constant k2 relative to M32 ([3]; competition with equimolar M32, modelled): about twice as large as that of M32
- fluorescence quench overshoot ([3]; equimolar F-M16N and M32 mixed with equimolar S100A4): 12%
- amplitude of fluorescence decrease with competitor ([3]; equimolar F-M16N and M32 with equimolar S100A4, relative to absence of M32): about half the amplitude observed in the absence of M32
- dissociation rate constants, F-M16N vs M32 [3]: similar
- kon ([3]; read-out: association rate constant kon (k2)): 4.9e+06 M⁻¹ s⁻¹
- koff ([3]; read-out: dissociation rate constant koff (k− 2)): 6.2 s⁻¹
- k3, Ca^2+ binding to preformed peptide–S100A4 complex ([3]; thermodynamic balance of Scheme 1): > 5 × 10^8 M^− 1 s^− 1
- k1 ([4]; Ca^2+ association to free S100A4, common to all targets): 3.2 μM^− 1 s^− 1
- k3 ([4]; Ca^2+ association to peptide–S100A4): > 500 μM^− 1 s^− 1
- k− 1 ([4]; Ca^2+ dissociation from free S100A4, common to all targets): 16 s^− 1
- k− 3 [4]: 9.4 s^− 1
- k2 [4]: 4.9 μM^− 1 s^− 1
- k− 2 [4]: 6.2 s^− 1

- kobs, Ca^2+ dissociation with peptide ([5]; 50 μM peptide premixed with 10 μM S100A4, 100 mM NaCl, 10 mM Hepes, 100 μM Ca^2+, pH 7.5, 20 °C): 3.3 s^− 1
- dissociation rate constants, F-M16N vs M32 [3]: similar
- Kd ([4]; Ca^2+ binding to peptide–S100A4, limit from K3 = K1K2/K0, read-out: K3): < 0.15 µM
- k− 3 [4]: 3.2 s^− 1
- k2 [4]: ∼ 2 μM^− 1 s^− 1
- Kd ([4]; peptide binding to S100A4 without Ca^2+, read-out: K0): > 100 µM
- k− 2 [4]: ∼ 6 s^− 1
- inhibition of turbidity change amplitude [6]: 50%
Compound: CSCC[C@H](NC(=O)[C@H](C)NC(=O)[C@H](CC(=O)O)NC(=O)[C@H](C)NC(C)=O)C(=O)N[C@@H](CC(N)=O)C(=O)N[C@@H](CCCNC(=N)N)C(=O)N[C@@H](CCC(=O)O)C(=O)N[C@H](C(=O)N[C@@H](CO)C(=O)N[C@@H](CO)C(=O)N[C@@H](CC(C)C)C(=O)N[C@@H](CCCCN)C(=O)N[C@@H](CC(N)=O)C(=O)N[C@@H](CCCCN)C(=O)N[C@@H](CC(C)C)C(=O)N[C@@H](CCCNC(=N)N)C(=O)N[C@@H](CCCNC(=N)N)C(=O)NCC(=O)N[C@@H](CC(=O)O)C(=O)N[C@@H](CC(C)C)C(=O)N1CCC[C@H]1C(=O)N[C@@H](Cc1ccccc1)C(=O)N[C@H](C(=O)N[C@H](C(=O)N1CCC[C@H]1C(=O)N[C@@H](CCCNC(=N)N)C(=O)N[C@@H](CCCNC(=N)N)C(=O)N[C@@H](CCSC)C(=O)N[C@@H](C)C(=O)N[C@@H](CCCNC(=N)N)C(=O)N[C@@H](CCCCN)C(=O)NCC(N)=O)C(C)C)C(C)C)C(C)C [M32]
- stoichiometry (discussion) ([5]; S100A4 concentration from absorbance at 280 nm): one mol of M32 peptide binds to two S100A4 monomers
